# Key:
# [1] = system: THP-1; experiment: Anti-inflammatory activity in human THP1 cells assessed as inhibition of LPS/INFgamma-induced TNFalpha production at 10 uM relative to control; assay type: functional
# [2] = molecular target: T1, Inhibitor of nuclear factor kappa-B kinase subunit alpha (Homo sapiens) (UniProt O15111); experiment: Inhibition of full length human His-tagged IKK1 expressed in baculovirus expression system at 10 uM by Z'-LYTE assay
# T1 sequence (whole entry): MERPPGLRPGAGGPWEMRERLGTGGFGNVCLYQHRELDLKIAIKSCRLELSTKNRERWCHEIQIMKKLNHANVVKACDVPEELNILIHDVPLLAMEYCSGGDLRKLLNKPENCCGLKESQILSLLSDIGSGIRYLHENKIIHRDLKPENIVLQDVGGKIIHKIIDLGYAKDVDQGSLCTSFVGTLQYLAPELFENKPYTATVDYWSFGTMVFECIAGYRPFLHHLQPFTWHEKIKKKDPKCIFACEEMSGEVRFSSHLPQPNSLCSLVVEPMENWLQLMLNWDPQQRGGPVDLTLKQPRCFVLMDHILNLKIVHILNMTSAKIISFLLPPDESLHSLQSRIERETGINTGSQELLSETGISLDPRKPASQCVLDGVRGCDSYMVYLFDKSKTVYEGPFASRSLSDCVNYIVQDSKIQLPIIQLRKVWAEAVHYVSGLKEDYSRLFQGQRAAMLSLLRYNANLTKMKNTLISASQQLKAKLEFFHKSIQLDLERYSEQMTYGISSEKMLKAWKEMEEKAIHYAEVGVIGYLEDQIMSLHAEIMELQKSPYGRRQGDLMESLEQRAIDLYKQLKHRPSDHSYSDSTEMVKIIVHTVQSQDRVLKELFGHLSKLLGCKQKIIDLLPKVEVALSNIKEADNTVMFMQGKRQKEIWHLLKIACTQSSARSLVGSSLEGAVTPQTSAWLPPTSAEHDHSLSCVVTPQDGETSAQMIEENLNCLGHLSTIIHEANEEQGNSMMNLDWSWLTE
# [3] = molecular target: T2, Inhibitor of nuclear factor kappa-B kinase subunit beta (Homo sapiens) (UniProt O14920); experiment: Inhibition of full length human GST-tagged IKK2 expressed in baculovirus expression system at 10 uM by Z'-LYTE assay
# T2 sequence (whole entry): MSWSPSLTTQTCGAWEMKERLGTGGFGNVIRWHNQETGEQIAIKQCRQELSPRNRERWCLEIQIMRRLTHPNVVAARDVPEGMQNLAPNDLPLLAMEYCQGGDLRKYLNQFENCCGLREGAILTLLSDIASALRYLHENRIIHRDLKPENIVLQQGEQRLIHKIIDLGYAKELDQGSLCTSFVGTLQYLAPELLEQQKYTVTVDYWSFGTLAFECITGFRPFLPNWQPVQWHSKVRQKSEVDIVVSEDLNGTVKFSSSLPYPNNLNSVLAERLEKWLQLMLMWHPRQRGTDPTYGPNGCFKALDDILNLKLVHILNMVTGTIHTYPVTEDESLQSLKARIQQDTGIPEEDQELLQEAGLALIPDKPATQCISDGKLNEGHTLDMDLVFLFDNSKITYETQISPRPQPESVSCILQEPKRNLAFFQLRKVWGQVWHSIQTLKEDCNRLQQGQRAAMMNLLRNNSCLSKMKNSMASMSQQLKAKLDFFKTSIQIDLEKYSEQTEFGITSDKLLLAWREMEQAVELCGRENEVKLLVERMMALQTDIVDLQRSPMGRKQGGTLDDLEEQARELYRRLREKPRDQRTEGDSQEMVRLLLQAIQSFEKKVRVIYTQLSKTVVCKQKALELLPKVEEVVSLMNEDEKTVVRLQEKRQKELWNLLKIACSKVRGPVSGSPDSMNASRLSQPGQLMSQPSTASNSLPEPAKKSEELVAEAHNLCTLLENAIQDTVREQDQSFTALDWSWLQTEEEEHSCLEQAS
inhibition [2],inhibition [3],Structure (SMILES),inhibition at 10 µM [1]
,,CNc1nc2ccc(C)cc2n2c(Br)cnc12,40%
0%,16%,CNc1nc2ccccc2n2c(Br)ncc12,
-4%,4%,CNc1nc2cc(C)ccc2n2nccc12,
-7%,4%,Cc1ccc2c(c1)nc(N(C)C)c1ccnn12,
5%,6%,CNc1nccn2c(Br)cnc12,
-3%,5%,CNc1nc2ccccc2n2c(C)cnc12,
0%,1%,CNc1nc2ccccc2n2ncc(Br)c12,
8%,64%,Cc1ccc2nc(NCCN)c3ncc(C)n3c2c1,
5%,18%,CNc1nccn2c(-c3ccc(O)c(O)c3)cnc12,
-9%,19%,CNc1nc2ccc(C)cc2n2nccc12,
-9%,-1%,CNc1nccn2c(-c3ccc(OC)c(OC)c3)cnc12,
5%,-2%,CNc1nc2ccccc2n2nccc12,
20%,-8%,Nc1nccn2c(-c3ccc(O)c(O)c3)cnc12,
-10%,-3%,CNc1nc2ccc(C)cc2n2ncc(Br)c12,
-5%,10%,CNc1nc2ccccc2n2cnc(Br)c12,
,,CNc1nc2ccc(C)cc2n2c(C)cnc12,45%
-1%,,CNc1nc2ccccc2n2c(Br)nc(Br)c12,
-10%,17%,CN(C)c1nc2ccccc2n2nccc12,
7%,10%,Nc1nccn2c(Br)cnc12,
-2%,-4%,COc1ccc(-c2cnc3c(N)nccn23)cc1OC,
-6%,7%,CNc1nc2cc(C)ccc2n2ncc(Br)c12,
-1%,-4%,CNc1nccn2c(C)cnc12,
,1%,Cc1ccc2nc(N(C)C)c3ccnn3c2c1,
3%,1%,CNc1nc2ccccc2n2cncc12,

# — ChEMBL document CHEMBL4190291, “Imidazo[1,2-a]pyrazine, Imidazo[1,5-a]quinoxaline and Pyrazolo[1,5-a]quinoxaline derivatives as IKK1 and IKK2 inhibitors” (2017)
